# Laboratory results: the supplement of paper PMC10307832
# How the values were obtained:
# Experiment in all cases: relative viability (nuclei count vs DMSO), 5 days (fraction); higher = more cells survive
# [1] = tested on: 201T
# In short: (§1)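 Lung cancer cell lines in 1536-well plates were dosed by pin tool the day after seeding, either with one drug alone or with a fixed anchor-drug dose plus five library-drug doses (not always all listed) in √10 steps. After 5 days, cells were fixed and their nuclei stained in one step (final 0.05% Triton X-100, 1% formaldehyde, 1 ug/ml Hoechst), then counted on 4× images. Relative viability is the nuclei count in treated wells divided by that in vehicle wells. Values are medians of duplicate plates.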
# [2] = tested on: BEN
# In short: as §1
# [3] = tested on: COR-L 105
# In short: as §1
# [4] = tested on: EKVX
# In short: as §1
# [5] = tested on: EPLC-272H
# In short: as §1
# [6] = tested on: H3255
# In short: as §1
# [7] = tested on: HCC-44
# In short: as §1
# [8] = tested on: HCC-827
# In short: as §1
# [9] = tested on: LCLC-97TM1
# In short: as §1
# [10] = tested on: LOU-NH91
# In short: as §1
# [11] = tested on: LU99A
# In short: as §1
# [12] = tested on: NCI-H1437
# In short: as §1
# [13] = tested on: NCI-H1666
# In short: as §1
# [14] = tested on: NCI-H1975
# In short: as §1
# [15] = tested on: NCI-H2085
# In short: as §1
# [16] = tested on: NCI-H2087
# In short: as §1
# [17] = tested on: NCI-H2170
# In short: as §1
# [18] = tested on: NCI-H2342
# In short: as §1
# [19] = tested on: NCI-H647
# In short: as §1
# [20] = tested on: NCI-H650
# In short: as §1
# [21] = tested on: PC-3 [JPC-3]
# In short: as §1
# [22] = tested on: SW 1573
# In short: as §1
smiles,measurement,setting,value
CCN(CC)CCCCNc1ncc2cc(-c3cc(OC)cc(OC)c3)c(NC(=O)NC(C)(C)C)nc2n1 + CC(=O)Nc1cccc(-n2c(=O)n(C3CC3)c(=O)c3c(Nc4ccc(I)cc4F)n(C)c(=O)c(C)c32)c1 [Trametinib] (partner 0.02 µM),relative viability,[1]; first compound 0.01 µM,0.716
same,relative viability,[1]; first compound 0.03162 µM,0.725
same,relative viability,[1]; first compound 0.1 µM,0.742
same,relative viability,[1]; first compound 0.3162 µM,0.742
same,relative viability,[1]; first compound 1 µM,0.605
same,relative viability,[2]; first compound 0.01 µM,1.15
same,relative viability,[2]; first compound 0.03162 µM,0.797
same,relative viability,[2]; first compound 0.1 µM,0.978
same,relative viability,[2]; first compound 0.3162 µM,1.09
same,relative viability,[2]; first compound 1 µM,0.888
same,relative viability,[3]; first compound 0.01 µM,0.417
same,relative viability,[3]; first compound 0.03162 µM,0.406
same,relative viability,[3]; first compound 0.1 µM,0.483
same,relative viability,[3]; first compound 0.3162 µM,0.45
same,relative viability,[3]; first compound 1 µM,0.451
same,relative viability,[4]; first compound 0.03162 µM,0.4
same,relative viability,[4]; first compound 0.1 µM,0.365
same,relative viability,[4]; first compound 0.3162 µM,0.328
same,relative viability,[4]; first compound 1 µM,0.311
same,relative viability,[5]; first compound 0.01 µM,0.263
same,relative viability,[5]; first compound 0.1 µM,0.277
same,relative viability,[5]; first compound 0.3162 µM,0.281
same,relative viability,[5]; first compound 1 µM,0.215
same,relative viability,[6]; first compound 0.01 µM,0.627
same,relative viability,[6]; first compound 0.1 µM,0.596
same,relative viability,[6]; first compound 0.3162 µM,0.711
same,relative viability,[6]; first compound 1 µM,0.566
same,relative viability,[7]; first compound 0.01 µM,0.987
same,relative viability,[7]; first compound 0.03162 µM,1.08
same,relative viability,[7]; first compound 0.1 µM,1.1
same,relative viability,[7]; first compound 0.3162 µM,1.11
same,relative viability,[7]; first compound 1 µM,0.931
same,relative viability,[8]; first compound 0.01 µM,0.539
same,relative viability,[8]; first compound 0.03162 µM,0.59
same,relative viability,[8]; first compound 0.1 µM,0.585
same,relative viability,[8]; first compound 0.3162 µM,0.587
same,relative viability,[8]; first compound 1 µM,0.516
same,relative viability,[9]; first compound 0.01 µM,0.161
same,relative viability,[9]; first compound 0.03162 µM,0.189
same,relative viability,[9]; first compound 0.1 µM,0.216
same,relative viability,[9]; first compound 0.3162 µM,0.168
same,relative viability,[9]; first compound 1 µM,0.185
same,relative viability,[10]; first compound 0.01 µM,0.758
same,relative viability,[10]; first compound 0.03162 µM,0.771
same,relative viability,[10]; first compound 0.1 µM,0.829
same,relative viability,[10]; first compound 0.3162 µM,0.844
same,relative viability,[10]; first compound 1 µM,0.766
same,relative viability,[11]; first compound 0.01 µM,0.593
same,relative viability,[11]; first compound 0.03162 µM,0.537
same,relative viability,[11]; first compound 0.1 µM,0.527
same,relative viability,[11]; first compound 0.3162 µM,0.6
same,relative viability,[11]; first compound 1 µM,0.505
same,relative viability,[12]; first compound 0.01 µM,0.564
same,relative viability,[12]; first compound 0.03162 µM,0.529
same,relative viability,[12]; first compound 0.1 µM,0.622
same,relative viability,[12]; first compound 0.3162 µM,0.521
same,relative viability,[12]; first compound 1 µM,0.495
same,relative viability,[13]; first compound 0.01 µM,0.788
same,relative viability,[13]; first compound 0.03162 µM,0.834
same,relative viability,[13]; first compound 0.1 µM,0.93
same,relative viability,[13]; first compound 0.3162 µM,0.973
same,relative viability,[13]; first compound 1 µM,0.875
same,relative viability,[14]; first compound 0.01 µM,0.328
same,relative viability,[14]; first compound 0.03162 µM,0.314
same,relative viability,[14]; first compound 0.1 µM,0.345
same,relative viability,[14]; first compound 0.3162 µM,0.405
same,relative viability,[14]; first compound 1 µM,0.348
same,relative viability,[15]; first compound 0.01 µM,0.521
same,relative viability,[15]; first compound 0.03162 µM,0.682
same,relative viability,[15]; first compound 0.1 µM,0.496
same,relative viability,[15]; first compound 0.3162 µM,0.469
same,relative viability,[15]; first compound 1 µM,0.547
same,relative viability,[16]; first compound 0.01 µM,0.202
same,relative viability,[16]; first compound 0.03162 µM,0.171
same,relative viability,[16]; first compound 0.1 µM,0.217
same,relative viability,[16]; first compound 0.3162 µM,0.189
same,relative viability,[16]; first compound 1 µM,0.209
same,relative viability,[17]; first compound 0.01 µM,0.987
same,relative viability,[17]; first compound 0.03162 µM,0.929
same,relative viability,[17]; first compound 0.1 µM,0.894
same,relative viability,[17]; first compound 0.3162 µM,1
same,relative viability,[17]; first compound 1 µM,0.719
same,relative viability,[18]; first compound 0.01 µM,0.787
same,relative viability,[18]; first compound 0.03162 µM,0.783
same,relative viability,[18]; first compound 0.1 µM,0.815
same,relative viability,[18]; first compound 0.3162 µM,0.858
same,relative viability,[18]; first compound 1 µM,0.928
same,relative viability,[19]; first compound 0.01 µM,0.382
same,relative viability,[19]; first compound 0.03162 µM,0.517
same,relative viability,[19]; first compound 0.1 µM,0.512
same,relative viability,[19]; first compound 0.3162 µM,0.456
same,relative viability,[19]; first compound 1 µM,0.267
same,relative viability,[20]; first compound 0.01 µM,1.03
same,relative viability,[20]; first compound 0.03162 µM,1.01
same,relative viability,[20]; first compound 0.1 µM,0.962
same,relative viability,[20]; first compound 0.3162 µM,1.07
same,relative viability,[20]; first compound 1 µM,0.925
same,relative viability,[21]; first compound 0.03162 µM,0.698
same,relative viability,[21]; first compound 0.1 µM,0.766
same,relative viability,[21]; first compound 0.3162 µM,0.72
same,relative viability,[21]; first compound 1 µM,0.683
same,relative viability,[22]; first compound 0.01 µM,0.455
same,relative viability,[22]; first compound 0.03162 µM,0.539
same,relative viability,[22]; first compound 0.1 µM,0.605
same,relative viability,[22]; first compound 0.3162 µM,0.516
same,relative viability,[22]; first compound 1 µM,0.433
